Measured values published in US8637536B2, “Pyrimidinone compounds for use in the treatment of diseases or conditions mediated by Lp-PLA2” (Glaxo Group Limited, priority 2010, dated 2014).
Where a name gives a salt, the structure may show the parent alone.

Target: T1, Lp-PLA2 from plasma (pooled human plasma) (Homo sapiens, UniProt Q13093)
T1 construct: 8 μL pooled human plasma; from tissue; host or cells: pooled human plasma
T1 sequence (Q13093 22-441): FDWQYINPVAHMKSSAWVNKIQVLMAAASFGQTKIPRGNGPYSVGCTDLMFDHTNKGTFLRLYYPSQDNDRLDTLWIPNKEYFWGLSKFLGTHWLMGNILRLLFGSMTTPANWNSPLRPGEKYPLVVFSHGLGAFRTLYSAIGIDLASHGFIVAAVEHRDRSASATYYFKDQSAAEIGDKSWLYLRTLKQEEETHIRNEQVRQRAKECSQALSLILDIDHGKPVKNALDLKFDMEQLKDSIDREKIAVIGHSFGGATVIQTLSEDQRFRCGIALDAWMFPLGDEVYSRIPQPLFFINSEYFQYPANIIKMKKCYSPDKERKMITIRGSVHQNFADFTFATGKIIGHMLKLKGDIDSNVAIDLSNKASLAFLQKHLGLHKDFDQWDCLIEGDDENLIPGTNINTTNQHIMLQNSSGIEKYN
Assay: Lp-PLA2 human plasma assay (Thio-PAF assay)
Type: biochemical
Conditions: text thresholds, read-out: pIC50 values in the thio-PAF assay (converted)
From the text: (3) Lipoprotein-Associated Phospholipase A2 (Lp-PLA2) Human Plasma Assay (Also Referred to as “Thio-PAF Assay”)
The human plasma assay utilizes a thioester analog of PAF (phosphatidylcholine), where hydrolysis yields to the formation of a phospholipid containing a free thiol group. The amount of thiol is quantitated continuously by reacting with CPM (7-diethylamino-3-(4′-maleimidylphenyl)-4-methylcoumarin), a maleimide which increases in fluoresence after Michael addition of thiols. This assay may detect the activity of Lp-PLA2 from plasma, as determined by specific inhibition by Lp-PLA2 inhibitors.
The thio-PAF assay was run as a quenched 15 μL assay. Compounds source plate was prepared by making 1:3 (by volume) serial dilution of the compounds into pure DMSO on 384-well microplate. 0.01 μL of compounds on compound source plate were transferred to 384 well Greiner 784076 (black) low-volume plates by ECHO liquid dispenser. 8 μL pooled human plasma, which was previously aliquoted and frozen, was added. Plates were centrifuged for 10 sec at 500 rpm. After 30 minutes preincubation, 2 μL of substrate (2.5 mM thio-PAF, 3.2 mM NEM (N-ethylmaleimide) [made fresh daily in DMSO], and 32 μM CPM [from a DMSO stock] in assay buffer of 50 mM HEPES, pH7.4, 150 mM NaCl, 1 mM CHAPS was added to 384 well Greiner 784076 (black) low-volume plates by BRAVO liquid handling station. Plates were centrifuged for 10 sec at 500 rpm. Plate was covered to protect from light and incubated for 2 min at room temperature. Reaction was quenched with 5 μL of 5% aqueous trifluoroacetic acid (TFA). Plates were covered to protect from light and incubated for 40 min at room temperature. Plates were read at ex: 380/em: 485 using-Envision microplate reader. PIC50 data, curve and QC analysis was conducted by using XLFit module in Excel.

Row | Structure (SMILES) | IC50
1 | COc1ncc(Cc2c[nH]c(NCCc3ccc(Oc4ccc(Cl)c(C(F)(F)F)c4)cc3)nc2=O)cn1 [E9, 2-{[2-(4-{[4-Chloro-3-(trifluoromethyl)phenyl]oxy}phenyl)ethyl]amino}-5-{[2-(methyloxy)-5-pyrimidinyl]methyl}-4(1H)-pyrimidinone] | ≤ 100 nM
2 | Cn1cc(Cc2cn(C)c(SCCc3ccc(Oc4cccc(C(F)(F)F)c4)c(C#N)c3)nc2=O)cn1 [E92, 5-[2-({1-methyl-5-[(1-methyl-1H-pyrazol-4-yl)methyl]-4-oxo-1,4-dihydro-2-pyrimidinyl}thio)ethyl]-2-{[3-(trifluoromethyl)phenyl]oxy}benzonitrile, trifluoroacetic acid salt] | ≤ 100 nM
3 | CN(CCc1ccc(Oc2cccc(C(F)(F)F)c2)cc1)c1nc(=O)c(Cc2cncnc2)c[nH]1 [E187, 2-(Methyl-{2-[4-(3-trifluoromethyl-phenoxy)-phenyl]-ethyl}-amino)-5-pyrimidin-5-ylmethyl-1H-pyrimidin-4-one] | ≤ 1000 nM
4 | O=c1nc(OCCc2ccc(Oc3ccc(Cl)c(C(F)(F)F)c3)cc2)[nH]cc1Cc1cnc(C(F)(F)F)nc1 [E126, 2-{[2-(4-{[4-chloro-3-(trifluoromethyl)phenyl]oxy}phenyl)ethyl]oxy}-5-{[2-(trifluoromethyl)-5-pyrimidinyl]methyl}-4(1H)-pyrimidinone] | ≤ 1000 nM
5 | COc1ncc(Cc2c[nH]c(OCCc3cc(F)c(Oc4cnc(C(F)(F)F)nc4)c(F)c3)nc2=O)cn1 [E169, 2-(3,5-difluoro-4-((2-(trifluoromethyl)pyrimidin-5-yl)oxy)phenethoxy)-5-((2-methoxypyrimidin-5-yl)methyl)pyrimidin-4(1H)-one] | ≤ 100 nM
6 | COc1ncc(Cc2c[nH]c(NCCc3ccc(Oc4ccc(C(F)(F)F)cn4)cc3)nc2=O)cn1 [E186, 5-(2-methoxy-pyrimidin-5-ylmethyl)-2-{2-[4-(5-trifluoromethyl-pyridin-2-yloxy)phenyl]-ethylamino}-1H-pyrimidin-4-one] | ≤ 1000 nM
7 | Cn1cc(Cc2cncnc2)c(=O)nc1CCc1ccc(Oc2ccc(Cl)c(C(F)(F)F)c2)cc1 [E4, 2-[2-(4-{[4-Chloro-3-(trifluoromethyl)phenyl]oxy}phenyl)ethyl]-1-methyl-5-(5-pyrimidinylmethyl)-4(1H)-pyrimidinone] | ≤ 1000 nM
8 | CCc1cn(C)c(OCCc2ccc(Oc3ccc(Cl)c(C(F)(F)F)c3)c(F)c2)nc1=O [E174, 2-{[2-(4-{[4-chloro-3-(trifluoromethyl)phenyl]oxy}-3-fluorophenyl)ethyl]oxy}-5-ethyl-1-methyl-4(1H)-pyrimidinone] | ≤ 100 nM
9 | Cn1cc(Cc2cn(C)c(SCCc3ccc(Oc4ccc(Cl)c(C(F)(F)F)c4)cc3)nc2=O)cn1 [E113, 2-{[2-(4-{[4-chloro-3-(trifluoromethyl)phenyl]oxy}phenyl)ethyl]thio}-1-methyl-5-[(1-methyl-1H-pyrazol-4-yl)methyl]-4(1H)-pyrimidinone] | ≤ 100 nM

Other lines, results leading:

Row | IC50 | Structure (SMILES)
10 | ≤ 100 nM | COc1ncc(Cc2c[nH]c(OCCc3ccc(Oc4ccc(Cl)c(OC(F)(F)F)c4)cc3)nc2=O)cn1 [E178, 2-(4-(4-chloro-3-(trifluoromethoxy)phenoxy)phenethoxy)-5-((2-methoxypyrimidin-5-yl)methyl)pyrimidin-4(1H)-one]
11 | ≤ 100 nM | Cn1cc(Cc2cncnc2)c(=O)nc1SCc1ccc(Oc2ccc(Cl)c(C(F)(F)F)c2)c(C#N)c1 [E79, 2-{[4-chloro-3-(trifluoromethyl)phenyl]oxy}-5-({[1-methyl-4-oxo-5-(5-pyrimidinylmethyl)-1,4-dihydro-2-pyrimidinyl]thio}methyl)benzonitrile]
12 | ≤ 1000 nM | O=c1nc(NCCc2ccc(Oc3cccc(C(F)(F)F)c3)cc2)[nH]cc1Cc1cncnc1 [E185, 5-Pyrimidin-5-ylmethyl-2-{2-[4-(3-trifluoromethyl-phenoxy)-phenyl]-ethylamino}-1H-pyrimidin-4-one]
13 | ≤ 100 nM | N#Cc1cc(CSc2nc(=O)c(Cc3cncnc3)c[nH]2)ccc1Oc1ccc(C(F)(F)F)cn1 [E73, 5-({[4-oxo-5-(5-pyrimidinylmethyl)-1,4-dihydro-2-pyrimidinyl]thiol}methyl)-2-{[5-(trifluoromethyl)-2-pyridinyl]oxy}benzonitrile]
